# Data from patent publication US9615577B2, “Herbicidally active cyclic dione compounds, or derivatives therefor, substituted by a phenyl which has an alkynyl-containing substituent” (Syngenta Limited, priority 2012, dated 2017).
# What was measured:
# Type in all cases: in vivo
# [1] = test system: Lolium perenne (LOLPE); experiment: Test 1B glasshouse assay for herbicidal activity, post-emergence; conditions: 360 h, 60 g/ha application rate
# Procedure: (§1) Seeds of a variety of monocotyledonous and dicotyledonous test plants are sown in standard soil in pots. The plants are cultivated for one day (for pre-emergence) or for about 12 days (range=10-13 days) (for post-emergence) under controlled conditions in a glasshouse (warm climate species at 24/18° C., cool climate species at 20/16° C., both at day/night; 16 hours light; 65% humidity).
# (§2) An “instant formulation”, known as the “IF50”, containing 50 g/liter (i.e. 5% w/v) of the “technical” (i.e. unformulated) active ingredient is prepared by dissolving the active ingredient in a mixture of organic solvents and emulsifier, details of which are provided in the Table below. This IF50 is then mixed with a small, variable amount of acetone to aid dissolution, before addition of a 0.2% v/v aqueous solution of the adjuvant X-77 (which is a mixture of alkyl aryl polyoxyethylene glycols and free fatty acids in isopropanol, CAS Registry number 11097-66-8), as the aqueous diluent, to form an aqueous spray solution which contains a predetermined concentration of the active ingredient (which varies depending on the application rate of the active ingredient to the plants) and 0.2% v/v of the adjuvant X-77. This aqueous spray solution is then sprayed onto the plants, after one day's cultivation (for pre-emergence) or after about 12 days' cultivation (for post-emergence).
# (§3) The test plants are then grown on, in a glasshouse (greenhouse) under controlled conditions (at either 24/18° C. or 20/16° C. (day/night) as mentioned above; 16 hours light; 65% humidity) and are watered twice daily. Either 15 days after application of the herbicide (15 DAA) (for post-emergence), or 20 days after application of the herbicide (20 DAA) (for pre-emergence), the test plants are evaluated visually, and an assessed percentage phytotoxicity score is given for each herbicidal application on each plant species (where 100%=total damage to plant; 0%=no damage to plant).
# (§4) Cool climate (“cool season”) grassy monocotyledonous weeds: Alopecurus myosuroides (ALOMY), Avena fatua (AVEFA), Lolium perenne (LOLPE).
# [2] = test system: Avena fatua (AVEFA); experiment: as above; conditions: 360 h, 60 g/ha application rate
# Procedure: as §1, §2, §3, §4
# [3] = test system: Alopecurus myosuroides (ALOMY); experiment: as above; conditions: 360 h, 60 g/ha application rate
# Procedure: as §1, §2, §3, §4
# [4] = test system: Digitaria sanguinalis (DIGSA); experiment: as above; conditions: 360 h, 60 g/ha application rate
# Procedure: as §1, §2, §3
# (§5) Warm climate (“warm season”) grassy monocotyledonous weeds: Setaria faberi (SETFA), SORVU (Sorghum bicolor (L.) Moench ssp. Bicolor, or Sorghum vulgare Pers.), Digitaria sanguinalis (DIGSA), Echinochloa crus-galli (ECHCG), and Brachiaria plantaginea (BRAPL).
# [5] = test system: Brachiaria plantaginea (BRAPL); experiment: as above; conditions: Urochloa plantaginea, 60 g/ha application rate
# Procedure: as §1, §2, §3, §5
# [6] = test system: Setaria faberi (SETFA); experiment: as above; conditions: 360 h, 60 g/ha application rate
# Procedure: as §1, §2, §3, §5
# [7] = test system: Brassica napus (BRSNN, rape); experiment: as above; conditions: 360 h, 60 g/ha application rate
# Procedure: as §1, §2, §3
# (§6) Cool climate crop plants: Triticum aestivum (TRZAW, winter wheat), Brassica napus (BRSNN, rape, also called oilseed rape or rapeseed), Beta vulgaris (BEAVA, sugar beet).
# [8] = test system: Triticum aestivum (TRZAW, winter wheat); experiment: as above; conditions: 360 h, 60 g/ha application rate
# Procedure: as §1, §2, §3, §6
# [9] = test system: Glycine max (GLXMA, soybean); experiment: as above; conditions: 360 h, 60 g/ha application rate
# Procedure: as §1, §2, §3
# Warm climate crop plants: Glycine max (GLXMA, soybean).
# [10] = test system: Echinochloa crus-galli (ECHCG); experiment: as above
# Procedure: as §1, §2, §3, §5
# Note: The herbicidal activity data (e.g. post-emergence) shown above in Biological Example 1B for Comparator compounds X-9 and X-10 is thought likely to have been measured some years ago, probably using a variant of the above-described test method. Also, for the post-emergence activity of X-9 and X-10 it is not currently known exactly how many days after application of the herbicide the phytotoxicity on the plants was measured.
# [11] = test system: Abutilon theophasti Medik. (ABUTH); experiment: Biological Example 2 comparative herbicidal data, post-emergence glasshouse screen; conditions: read-out: Post-emergence herbicidal activities (percentage phytotoxicity) ABUTH
# [12] = test system: Echinochloa crus-galli (ECHCG); experiment: Test 1A glasshouse assay for herbicidal activity, post-emergence; conditions: 312 h, evaluated after 13 days, read-out: percentage phytotoxicity ECHCG
# Procedure: (§7) Seeds of a variety of test species were sown in standard soil in pots. After cultivation for one day (pre-emergence) or after 8 days cultivation (post-emergence) under controlled conditions in a glasshouse (at 24/16° C., day/night; 14 hours light; 65% humidity), the plants were sprayed with an aqueous spray solution derived from the formulation of the technical active ingredient in acetone/I water (50:50) solution containing 0.5% Tween 20 (polyoxyethelyene sorbitan monolaurate, CAS RN 9005-64-5). The test plants were then grown in a glasshouse under controlled conditions in a glasshouse (at 24/16° C., day/night; 14 hours light; 65% humidity) and watered twice daily. After 13 days for pre and post-emergence, the test was evaluated visually for percentage phytotoxicity to the plant (where 100=total damage to plant; 0=no damage to plant).
# (§8) Alopecurus myosuroides (ALOMY), Setaria faberi (SETFA), Echinochloa crus-galli (ECHCG), Solanum nigrum (SOLNI), Amaranthus retroflexus (AMARE), Ipomoea hederacea (IPOHE), and Abutilon theophasti Medik. (ABUTH, common English name “velvetleaf”). Of these, Alopecurus myosuroides (ALOMY), Setaria faberi (SETFA), and Echinochloa crus-galli (ECHCG) are grassy monocotyledonous weeds.
# [13] = test system: Alopecurus myosuroides (ALOMY); experiment: as above; conditions: 312 h, evaluated after 13 days, read-out: percentage phytotoxicity ALOMY
# Procedure: as §7, §8
# [14] = test system: Setaria faberi (SETFA); experiment: as above; conditions: 312 h, evaluated after 13 days, read-out: percentage phytotoxicity SETFA
# Procedure: as §7, §8
# [15] = test system: Abutilon theophasti Medik. (ABUTH); experiment: as above; conditions: 312 h, evaluated after 13 days, read-out: percentage phytotoxicity ABUTH
# Procedure: as §7, §8
# [16] = test system: Amaranthus retroflexus (AMARE); experiment: as above; conditions: 312 h, evaluated after 13 days, read-out: percentage phytotoxicity AMARE
# Procedure: as §7, §8
# [17] = test system: Amarantus retroflexus (AMARE); experiment: Biological Example 2 comparative herbicidal data, post-emergence glasshouse screen; conditions: Amaranthus retroflexus, read-out: Post-emergence herbicidal activities (percentage phytotoxicity) AMARE
# [18] = test system: Echinochloa crus-galli (ECHCG); experiment: Test 1A glasshouse assay for herbicidal activity, pre-emergence; conditions: 312 h, 250 g/ha, evaluated after 13 days, read-out: percentage phytotoxicity ECHCG
# Procedure: as §7, §8
# [19] = test system: Alopecurus myosuroides (ALOMY); experiment: as above; conditions: 312 h, 250 g/ha, evaluated after 13 days, read-out: percentage phytotoxicity ALOMY
# Procedure: as §7, §8
# [20] = test system: Setaria faberi (SETFA); experiment: as above; conditions: 312 h, 250 g/ha, evaluated after 13 days, read-out: percentage phytotoxicity SETFA
# Procedure: as §7, §8
# [21] = test system: Abutilon theophasti Medik. (ABUTH); experiment: as above; conditions: 312 h, 250 g/ha, evaluated after 13 days, read-out: percentage phytotoxicity ABUTH
# Procedure: as §7, §8
# [22] = test system: Amaranthus retroflexus (AMARE); experiment: as above; conditions: 312 h, 250 g/ha, evaluated after 13 days, read-out: percentage phytotoxicity AMARE
# Procedure: as §7, §8
# [23] = test system: Echinochloa crus-galli (ECHCG); experiment: Biological Example 2 comparative herbicidal data, post-emergence glasshouse screen; conditions: 312 h, read-out: Post-emergence herbicidal activities (percentage phytotoxicity) ECHCG
# Procedure: as §7
# (§9) Comparative herbicidal data is given below for certain exemplified compounds with 4-(prop-1-ynyl)-2,6-dimethylphenyl or 4-(chloroethynyl)-2,6-dimethylphenyl headgroups, compared to the corresponding compounds with either 4-ethynyl-2,6-dimethylphenyl or 2,4,6-trimethylphenyl headgroups, as follows. Comparative herbicidal data is also given below for certain exemplified compounds with 4-(prop-1-ynyl)-2-chloro-6-methoxyphenyl headgroups, compared to the corresponding compounds with 4-ethynyl-2-chloro-6-methoxyphenyl or 4-(but-1-ynyl)-2-chloro-6-methoxyphenyl or 4-methyl-2-chloro-6-methoxyphenyl or 2-chloro-6-methoxyphenyl headgroups, as follows.
# (§10) Except where specified otherwise, the glasshouse screen for herbicidal activity is substantially the same as that presented in Biological Example 1A (Test 1A) hereinabove. The weed abbreviations are as defined in Biological Example 1A.
# [24] = test system: Alopecurus myosuroides (ALOMY); experiment: as above; conditions: 312 h, read-out: Post-emergence herbicidal activities (percentage phytotoxicity) ALOMY
# Procedure: as §7, §9, §10
# [25] = test system: Setaria faberi (SETFA); experiment: as above; conditions: 312 h, read-out: Post-emergence herbicidal activities (percentage phytotoxicity) SETFA
# Procedure: as §7, §9, §10
compound,measurement,setting,value
"CCc1cc(C)cc(CC)c1C1C(=O)C2CCC(C2)C1=O (stereo not drawn) [Compound X-10, reference compound]",pest or weed control at 60 g/ha,[1],70%
same,pest or weed control at 60 g/ha,[2],50%
same,pest or weed control at 60 g/ha,[3],80%
same,pest or weed control at 60 g/ha,[4],100%
same,pest or weed control at 60 g/ha,[5],90%
same,pest or weed control at 60 g/ha,[6],100%
same,plant injury at 60 g/ha,[7],0%
same,plant injury at 60 g/ha,[8],20%
same,plant injury at 60 g/ha,[9],0%
same,post-emergence activity on ECHCG compared with Compound A-5,"[10]; 60 g/ha, probably a variant of the test method, days after application not known",lower post-emergence activity
same,pest or weed control at 60 g/ha,"[10]; Echinochloa crus-galli, 60 g/ha application rate",70%
"CC#Cc1cc(Cl)c(C2C(=O)CCCC2=O)c(OC)c1 [Compound A-22, 2-(2-Chloro-6-methoxy-4-prop-1-ynyl-phenyl)cyclohexane-1,3-dione]",pest or weed control at 8 g/ha,[11]; 8 g/ha application rate,0%
same,pest or weed control at 30 g/ha,[11]; 30 g/ha application rate,10%
same,pest or weed control at 30 g/ha,[12]; 30 g/ha,90%
same,pest or weed control at 250 g/ha,[12]; 250 g/ha,100%
same,pest or weed control at 30 g/ha,[13]; 30 g/ha,60%
same,pest or weed control at 250 g/ha,[13]; 250 g/ha,90%
same,pest or weed control at 30 g/ha,[14]; 30 g/ha,80%
same,pest or weed control at 250 g/ha,[14]; 250 g/ha,100%
same,pest or weed control at 30 g/ha,[15]; 30 g/ha,10%
same,pest or weed control at 250 g/ha,[15]; 250 g/ha,70%
same,pest or weed control at 30 g/ha,[16]; 30 g/ha,20%
same,pest or weed control at 250 g/ha,[16]; 250 g/ha,0%
same,pest or weed control at 8 g/ha,[17]; 8 g/ha application rate,0%
same,pest or weed control at 30 g/ha,[17]; 30 g/ha application rate,20%
same,pest or weed control at 250 g/ha,[18],100%
same,pest or weed control at 250 g/ha,[19],90%
same,pest or weed control at 250 g/ha,[20],100%
same,pest or weed control at 250 g/ha,[21],60%
same,pest or weed control at 250 g/ha,[22],70%
same,pest or weed control at 8 g/ha,[23]; 8 g/ha application rate,80%
same,pest or weed control at 30 g/ha,[23]; 30 g/ha application rate,90%
same,pest or weed control at 8 g/ha,[24]; 8 g/ha application rate,10%
same,pest or weed control at 30 g/ha,[24]; 30 g/ha application rate,60%
same,pest or weed control at 8 g/ha,[25]; 8 g/ha application rate,70%
same,pest or weed control at 30 g/ha,[25]; 30 g/ha application rate,80%
